Test results taken from ChEMBL document CHEMBL4145566, “Isoindolinones, Phthalides, and a Naphthoquinone from the Fruiting Body of Daldinia concentrica” (J Nat Prod, 2018).

Tested on: HUVEC
Assay: Antiangiogenic activity in HUVEC assessed as inhibition of cell proliferation after 18 hrs by WST-8 reagent based assay
Assay type: functional
Conditions: Homo sapiens

Row | Compound | IC50 [µM]
1 | C=C1[C@@H](C)[C@H]2[C@H](Cc3ccccc3)NC(=O)[C@]23OC(=O)/C=C/[C@@H](O)CCC[C@@H](C)C/C=C/[C@H]3[C@@H]1O | 0.2
2 | COc1cccc2c1C(=O)C(=O)C=C2c1ccc(O)c2c(OC)cccc12 | 7.5
